# How the values were obtained:
# [1] = tested on: H460 cells; assay: Annexin V/PI staining flow cytometry, H460; assay type: cell-based, human; conditions: 24 h
# Method: The density of the A549 cells and H460 in the logarithmic growth phase was adjusted to 1 × 10^6 cells/mL, and a total of 1 mL of cell suspension and 1 mL of L14e at different concentrations were added into each well with the final compound L14e concentration in each group as 0, 0.5, 1.0, and 1.5 μM. Details are given in Supplementary Materials and Methods.
# The density of the A549 cells and H460 in the logarithmic growth phase was adjusted to 1 × 10^6 cells/mL, and then the cell suspension was seeded into a 6-well plate (Becton Dickinson and Company, USA). A total of 1 mL of cell suspension and 1 mL of compound L14e at different concentrations were added into each well with the final compound L14e concentration in each group as 0 μM, 0.5 μM, 1.0 μM, and 1.5μM. After cells were incubated for 24 h at 37 °C, 1 mL of cell suspension per well was collected and centrifuged at 1000 r/min for 10 min at 4°C, and the supernatant was removed. Then, 1 mL of cold PBS was added to the cell pellet, and was shaken lightly to re-suspend the cells. The cells were centrifuged at 1000 r/min at 4 °C for 10 min, and the supernatant was removed. These steps were repeated twice. The cells were re-suspended in 150µL of PBS, 10 µL of fluorescein isothiocyanate (FITC)-labeled Annexin V (Annexin V-FITC) (Promega Corporation, USA) and 5 µL of PI (Promega Corporation, USA) were added. The mixture was gently mixed and incubated in the dark at room temperature for 10 min then stained cells were analyzed using flow cytometry to test the levels of apoptotic cells (Becton Dickinson and Company, USA; FACS Calibur).
# [2] = tested on: p-EGFR, p-AKT, p-ERK1/2; assay: Western blot EGFR signaling pathway, A549; assay type: cell-based, human; conditions: A549, 0.5, 1.0, 1.5 μM, 24 h, EGF 50 ng/ml
# Method: (§1) A549 cells, H460 cells and HUVECs were treated with different concentrations of compound L14e for 24 h. Primary antibodies (100 μL/cm^2): P53(10442-1-AP, Proteintech Group),caspase-3 (19677-1-AP, Proteintech Group), bax (50599-2-lg, Proteintech Group), bcl-2 (12789-1-AP, Proteintech Group), cleaved caspase-3 (25546-1-AP, Proteintech Group), β-actin (60008-1-lg, Proteintech Group), EGFR (ab21074, Abcam), AKT (#2920, Cell Signaling Technology), ERK1/2 (#4370, Cell Signaling Technology), VEGFR-2 (#9698, Cell Signaling Technology), p-EGFR (ab40815, Abcam), p-AKT (#4060, Cell Signaling Technology), p-ERK1/2 (#4695, Cell Signaling Technology), p-VEGFR-2 (#3770, Cell Signaling Technology), and GAPDH (ab181603, Abcam). The cellular levels of proteins were determined by standard Western blotting. Details were given in Supplementary Materials and Methods.
# (§2) A549 cells, H460 cells and HUVECs were treated with different concentrations of compound L14e for 24 h, and collected to establish their respective treatment groups. […]
# (§3) Extracted proteins were separated from each other using polyacrylamide electrophoresis on a 10 % gel (Beyotime Biotechnology Company, Shanghai, China) and transferred to a polyvinylidene fluoride (PVDF) membrane. […] Gray values of protein bands were quantitatively analyzed, with the gray value of β-actin(GAPDH) band as the reference.
# [3] = tested on: p-EGFR, p-AKT, p-ERK1/2; assay: Western blot EGFR signaling pathway, H460; assay type: cell-based, human; conditions: H460, 0.5, 1.0, 1.5 μM, 24 h, EGF 50 ng/ml
# Method: as §1, §2, §3
# [4] = tested on: A549 tumor xenograft; assay: A549 tumor xenograft model; assay type: in vivo, BABL/c female nude mice; conditions: 80 mg/kg, 3 weeks
# Method: Five-week-old immunodeficient BABL/c female nude mice, weighing 18 to 20 g, were purchased and maintained under specific pathogen-free conditions. They were implanted subcutaneously with 1 × 10^7 A549 cells. Tumor sizes were assessed using the two largest perpendicular axes. Tumor volume was calculated using the formula V = (a × b^2)/2, where a is length and b is width. The tumor volume was measured every 3 days. When tumor volumes reached 50 mm^3, the mice were randomized to drug-treated or vehicle groups (five mice per group). Tumor growth was monitored every 3 days using a Vernier caliper. […] All animal studies were conducted with the approval of the Laboratory Animal Welfare and Ethical Committee of China Medical University.
# After incubation with hydrogen peroxide, the slides were washed with PBS and then incubated with 0.4% Triton X-100. The sections were incubated with blocking solution (Dako Protein Block, Dako, Glostrup, Denmark) for 30 min at room temperature after washing with PBS. The sections were further incubated with primary antibodies (Ki67 and cleaved caspase 3 [all from Cell Signaling Technology], diluted at 1:200) overnight at 4 °C, washed with PBS several times, incubated with the corresponding biotinylated secondary antibodies (diluted at 1:500), and then washed with PBS multiple times. After adding avidin-biotin complexes (Vector Laboratories), the sections were visualized using diaminobenzidine (DAB) detection reagent (Enzo Life Sciences, Farmingdale, NY, USA) and mounted with a mounting solution (Vector Laboratories, Burlingame, CA, USA).
compound,measurement,setting,value
"O=C(Nc1cccc(Cl)c1)Nc1ccccc1NS(=O)(=O)c1c[nH]c(=O)[nH]c1=O [Compound L14e, N'-(3-chlorophenyl)-2-(2,4-dihydroxypyrimidine-5-sulfonamido)phenyl urea]",apoptotic rate,"[1]; H460, 0.5 μM",6.4%
same,"early apoptosis rate (Q4, Annexin V [+] PI [−])","[1]; H460, 0.5 μM",3.9%
same,apoptotic rate,"[1]; H460, 1.0 μM",21.8%
same,"early apoptosis rate (Q4, Annexin V [+] PI [−])","[1]; H460, 1.0 μM",15.1%
same,apoptotic rate,"[1]; H460, 1.5 μM",24.4%
same,"early apoptosis rate (Q4, Annexin V [+] PI [−])","[1]; H460, 1.5 μM",17.3%
same,expression of phosphorylated EGFR (Tyr1068) and AKT (Ser473),[2],significantly reduced
same,expression of phosphorylated EGFR (Tyr1068) and AKT (Ser473),[3],significantly reduced
same,changes in body weight in xenograft mice,[4],negligible changes in body weight
same,expression of Ki67 in tumors (IHC),[4],significantly decreased
same,expression of cleaved-caspase-3 in tumors (IHC),[4],significantly increased
same,growth of xenograft tumors,[4]; intraperitoneal injection,significantly suppressed the growth of xenograft tumors
same,tumor growth inhibition (TGI),[4]; intraperitoneal injection,84.86
